Some test systems named below: A498 renal; SK-MEL-5 melanoma; K-562 leukemia; DU-145 prostate; MCF7 breast; MDA-MB-435; HCC-2998 colon; OVCAR-4 ovarian.
Assay in all cases: NCI tumour cell line growth inhibition, 48 h

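Each compound was tested at five concentrations against cells in 96-well plates for 48 hours. GI50 marks 50% less growth. TGI: total growth inhibition.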

Turning to `O=C(O)C(Br)C(Br)C(=O)O` (stereo not drawn), the TGI in the experiment on A498 renal, in the experiment on SK-MEL-5 melanoma, in the experiment with K-562 leukemia, in the experiment with DU-145 prostate, in the experiment with MCF7 breast and in the experiment with MDA-MB-435 was more than 100 µM each time. For the same molecule, the TGI with HCC-2998 colon and in the experiment with OVCAR-4 ovarian was more than 100 µM each time.

On to `COc1cc2c3c(n(CCCCNC(=O)OC(C)(C)C)c(=O)c2cc1OC)-c1cc2c(cc1C3=O)OCO2`, for which the GI50 with A498 renal was more than 100 µM; with SK-MEL-5 melanoma, more than 100 µM; in the experiment on K-562 leukemia, more than 100 µM; in the experiment on DU-145 prostate it was more than 100 µM; with MCF7 breast it was 5.15 µM; in the experiment on MDA-MB-435, more than 100 µM. Also, the GI50 in the experiment with HCC-2998 colon and in the experiment with OVCAR-4 ovarian was more than 100 µM each time. Besides, the TGI in the experiment with A498 renal, in the experiment with SK-MEL-5 melanoma, with K-562 leukemia, with DU-145 prostate, in the experiment on MCF7 breast and in the experiment on MDA-MB-435 was more than 100 µM throughout. The TGI in the experiment with HCC-2998 colon and with OVCAR-4 ovarian was more than 100 µM each time.

Consider `CCN1C(=O)N(CC)C2C1NN=c1s/c(=C\c3cccs3)c(=O)n12` (stereo not drawn), for which the GI50 with A498 renal is 0.021 µM; in the experiment on SK-MEL-5 melanoma it was 0.218 µM; in the experiment with K-562 leukemia, 0.0551 µM; in the experiment on DU-145 prostate, 0.281 µM; in the experiment with MCF7 breast it was 0.0496 µM; with MDA-MB-435, 0.0268 µM. Further, the GI50 is 0.257 µM in the experiment with HCC-2998 colon and 1.82 µM in the experiment with OVCAR-4 ovarian. In addition, the TGI was 0.0813 µM in the experiment on A498 renal; 4.26 µM in the experiment with SK-MEL-5 melanoma; more than 100 µM in the experiment with K-562 leukemia; more than 29.9 µM in the experiment with DU-145 prostate; more than 100 µM in the experiment with MCF7 breast; 0.0828 µM in the experiment with MDA-MB-435. Besides, the TGI in the experiment on HCC-2998 colon and in the experiment on OVCAR-4 ovarian was more than 100 µM throughout.

For `C=C1C(=O)O[C@H]2[C@H]1CC/C(Cn1cc(Cc3c[nH]c4ccccc34)nn1)=C\CC[C@@]1(C)O[C@@H]21`, the GI50 is 3.9 µM in the experiment with A498 renal; 1.89 µM in the experiment on SK-MEL-5 melanoma; 1.81 µM in the experiment with K-562 leukemia; 1.54 µM in the experiment on DU-145 prostate; 1.5 µM in the experiment with MCF7 breast; 1.73 µM with MDA-MB-435. The GI50 in the experiment with HCC-2998 colon was 2.18 µM; in the experiment with OVCAR-4 ovarian it was 2.05 µM. Further, the TGI stood at 14.3 µM in the experiment on A498 renal; 3.61 µM in the experiment with SK-MEL-5 melanoma; 6.14 µM in the experiment on K-562 leukemia; 2.88 µM in the experiment on DU-145 prostate; 3.34 µM in the experiment with MCF7 breast; 3.46 µM with MDA-MB-435. The TGI with HCC-2998 colon was 3.92 µM; in the experiment with OVCAR-4 ovarian it was 5.61 µM.

On to `CCC#CC[C@H](O)C/C=C1/C(=O)C=C[C@@H]1C/C=C\CCCC(=O)OC`, for which the GI50 in the experiment on A498 renal is 6.82 µM; in the experiment with SK-MEL-5 melanoma, 0.767 µM; with K-562 leukemia, 1.13 µM; in the experiment on DU-145 prostate, 1.75 µM; in the experiment on MCF7 breast it was 0.297 µM; with MDA-MB-435 it was 1.5 µM. In addition, the GI50 was 1.07 µM in the experiment with HCC-2998 colon and 2.25 µM with OVCAR-4 ovarian. For the same molecule, the TGI in the experiment on A498 renal turned out to be 13.7 µM; in the experiment with SK-MEL-5 melanoma, 1.46 µM; in the experiment on K-562 leukemia, 50 µM; in the experiment on DU-145 prostate it was 7.26 µM; in the experiment on MCF7 breast it was 7.01 µM; with MDA-MB-435 it was 5.92 µM. Moreover, the values for the TGI in the experiment on HCC-2998 colon and in the experiment with OVCAR-4 ovarian were 1.89 µM and 8.64 µM, respectively.

Regarding `Cc1cc(C(=O)Nc2cc(Oc3ccc4nc(NC(=O)C5CC5)cn4n3)ccc2C)n(C)n1`, the GI50 was more than 10 µM in the experiment on A498 renal; more than 10 µM in the experiment with SK-MEL-5 melanoma; 0.555 µM with K-562 leukemia; more than 10 µM in the experiment on DU-145 prostate; 6.41 µM in the experiment on MCF7 breast; 3.22 µM in the experiment with MDA-MB-435. For the same molecule, the GI50 with HCC-2998 colon and with OVCAR-4 ovarian was more than 10 µM in each case. For the same molecule, the TGI in the experiment with A498 renal, in the experiment on SK-MEL-5 melanoma, in the experiment with K-562 leukemia, in the experiment on DU-145 prostate, in the experiment with MCF7 breast and in the experiment on MDA-MB-435 was more than 10 µM throughout. Moreover, the TGI with HCC-2998 colon and in the experiment on OVCAR-4 ovarian was more than 10 µM in each case.

Regarding `O=C1Nc2ccccc2/C1=C\c1cccc(/C=C2/C(=O)Nc3ccccc32)n1`, the GI50 in the experiment on A498 renal was 1.5 µM; with SK-MEL-5 melanoma it was 0.242 µM; in the experiment on K-562 leukemia it was 0.291 µM; in the experiment on DU-145 prostate it was 0.881 µM; in the experiment on MCF7 breast, 0.226 µM; in the experiment with MDA-MB-435 it was 0.355 µM. Besides, the GI50 in the experiment on HCC-2998 colon is 0.615 µM; in the experiment with OVCAR-4 ovarian it was 0.718 µM. Also, the TGI in the experiment with A498 renal is 2.9 µM; in the experiment on SK-MEL-5 melanoma it was 0.722 µM; in the experiment on K-562 leukemia, more than 37.9 µM; in the experiment on DU-145 prostate it was 2.26 µM; in the experiment with MCF7 breast, 0.851 µM; in the experiment with MDA-MB-435, 1.81 µM. Besides, the TGI worked out at 1.77 µM with HCC-2998 colon and 1.99 µM in the experiment with OVCAR-4 ovarian.

As to `Cc1c(N)nc([C@H](CC(N)=O)NC[C@H](N)C(N)=O)nc1C(=O)N[C@H](C(=O)N[C@H](C)[C@@H](O)CC(=O)N[C@H](C(=O)NC(O[C@@H]1O[C@@H](C)[C@@H](N)[C@@H](O)[C@H]1O)C(O)c1nc(-c2nc(C(=O)NCCCCN)cs2)cs1)[C@@H](C)O)[C@@H](O[C@@H]1O[C@@H](CO)[C@@H](O)[C@H](O)[C@@H]1O[C@H]1O[C@H](CO)[C@@H](O)[C@H](OC(N)=O)[C@@H]1O)c1c[nH]cn1` (stereo partly drawn), the TGI in the experiment with A498 renal, with SK-MEL-5 melanoma, in the experiment on K-562 leukemia, with DU-145 prostate, in the experiment on MCF7 breast and in the experiment on MDA-MB-435 was more than 50 µM in each case. Further, the TGI in the experiment with HCC-2998 colon and in the experiment on OVCAR-4 ovarian was more than 50 µM each time.

For the molecule `c1ccc2cc(Cn3cc[n+](Cc4ccc5ccccc5c4)c3)ccc2c1`, the GI50 with A498 renal was 0.0254 µM; in the experiment on SK-MEL-5 melanoma it was 0.258 µM; in the experiment with K-562 leukemia, 1.02 µM; with DU-145 prostate it was 2.83 µM; in the experiment on MCF7 breast it was 1.87 µM; in the experiment on MDA-MB-435 it was 0.543 µM. Further, the results for the GI50 in the experiment with HCC-2998 colon and with OVCAR-4 ovarian were 1.05 µM and 0.339 µM, respectively. The TGI with A498 renal worked out at 4.69 µM; with SK-MEL-5 melanoma it was 0.916 µM; in the experiment on K-562 leukemia it was 14.5 µM; in the experiment on DU-145 prostate, 14.7 µM; in the experiment on MCF7 breast it was 10.5 µM; in the experiment with MDA-MB-435, 2.29 µM. The TGI in the experiment on HCC-2998 colon is 4.38 µM; with OVCAR-4 ovarian it was 2.97 µM.
